Here are results for five molecules from patent US20240335563A1, “EPIGENETIC MODULATORS FOR TISSUE REPROGRAMMING” (THE TRUSTEES OF INDIANA UNIVERSITY, priority 2021, published 2024).

In one experiment the test system is mouse fibroblasts. Particulars: LSD1 inhibition; cited from earlier work.
The subject of experiment [1] is streptozotocin-induced diabetic C57BL/6 male mice. As to the kind of experiment: Blood glucose in streptozotocin-induced diabetic mice after TNT-PMGF, with intradermal epigenetic modulator. Particulars: p<0.001 vs. week 4. Format: in vivo.
Another experiment deals with intermediate iPSCs. Particulars: cited from earlier work; for SCR efficiency: HDAC inhibition.
For experiment [2], the system named is neural precursor cells and MEFs. Particulars: G9a inhibition, H3K9 hypomethylation; cited from earlier work.
The subject of the next experiment is ESC-specific genes. Particulars: alone, without transduction of the reprogramming factors; cited from earlier work.

Take `N[C@@H]1C[C@H]1c1ccccc1` (racemic) [Parnate, tranylcypromine]: the “reprogramming efficiency of mouse fibroblasts” value in the experiment with mouse fibroblasts is listed as “increases the reprogramming efficiency”.
The molecule `Nc1ncn([C@@H]2O[C@H](CO)[C@@H](O)[C@H]2O)c(=O)n1` [5-Azacytidine] returned an average blood glucose in experiment [1] (week 5, after 5-Azacytidine 10 mg/Kg intradermally at TNT sites thrice in week 4, TNT PMGF non-responders) of around 275 mg/dL. The blood glucose in experiment [1] (week 8, after subsequent 5-Azacytidine injection at week 7) is around 170 mg/dL; in experiment [1] (week 9, after subsequent 5-Azacytidine injection at week 7) it was 169 mg/dL. The “reprogramming of intermediate iPSCs” value with intermediate iPSCs (DNMT inhibition during reprogramming) is “allows intermediate iPSCs to be fully reprogrammed”.
Consider `COc1cc2nc(N3CCCN(C)CC3)nc(NC3CCN(Cc4ccccc4)CC3)c2cc1OC` [BIX-01294], for which, in experiment [2], the “reprogramming of neural precursor cells and MEFs into iPSCs” value is “enhances the reprogramming”.
Take `CC(/C=C/C(=O)NO)=C\[C@@H](C)C(=O)c1ccc(N(C)C)cc1` [trichostatin A]: in the experiment on intermediate iPSCs, the SCR efficiency result is listed as “improves SCR efficiency”. For the same molecule, the “upregulation of ESC-specific genes” value in the experiment on ESC-specific genes is “sufficient to upregulate ESC-specific genes”.
Take `CCCC(CCC)C(=O)O` [valproic acid]: the SCR efficiency entry in the experiment with intermediate iPSCs is listed as “improves SCR efficiency”.
